{"source": "ChEMBL document CHEMBL1145818", "about": "“Effect of detergent on \"promiscuous\" inhibitors” (J Med Chem, 2003)", "key": {"[1]": {"molecular_target": "Chymotrypsinogen A (Bos taurus) (UniProt P00766)", "experiment": "Concentration required for the inhibition of Chymotrypsinogen"}, "[2]": {"molecular_target": "T1, Dihydrofolate reductase (Homo sapiens) (UniProt P00374)", "T1 sequence (whole entry)": "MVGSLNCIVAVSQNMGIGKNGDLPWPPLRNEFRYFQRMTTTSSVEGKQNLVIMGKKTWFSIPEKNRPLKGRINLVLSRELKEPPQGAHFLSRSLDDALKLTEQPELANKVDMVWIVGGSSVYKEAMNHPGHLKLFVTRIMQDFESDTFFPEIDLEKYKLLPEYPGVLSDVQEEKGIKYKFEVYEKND", "experiment": "Concentration required for the inhibition of dihydrofolate reductase"}}}
{"smiles": "Nc1c(/N=N/c2ccc(-c3ccc(/N=N/c4cc(S(=O)(=O)O)c5ccccc5c4N)cc3)cc2)cc(S(=O)(=O)O)c2ccccc12", "values": [{"measurement": "Concentration", "setting": "[1]", "result": 40, "unit": "µM"}, {"measurement": "Concentration", "setting": "[2]", "result": 0.4, "unit": "µM"}]}
